Where two headings read alike, the source gives them in different places.
Legend:
[1] = Pharmacokinetic study of IPA in rats after i.v. or oral administration (LC-MS/MS of plasma, noncompartmental analysis); format: in vivo, Sprague-Dawley rats; conditions: for AUC(0-inf) / MRT / half-life / AUC(0-t) / bioavailability / CL/F / Tmax / T max1: rat; for AUC(0-t): read-out: AUC(0~24); for bioavailability: oral, read-out: absolute bioavailability; for Tmax: read-out: T max 2; for C max1 / C max2: rat plasma; for C max1: n = 5
Experimental: Male Sprague-Dawley rats (220-250 g) from Shanghai Slac Laboratory Animal Co., Ltd. (Shanghai, China) (2018(hu)-08-0013) were housed in a climate-controlled facility (22 ± 2°C, 46 ± 20% relative humidity, 12 h light/dark cycle) with unlimited food and water access. After a 7-day acclimatization period, 20 rats were randomly assigned to undergo the administration of IPA via p.o. administration (50, 100, or 200 mg/kg) or via i.v. injection (5 mg/kg) for pharmacokinetic analyses. All animal studies received approval from the Animal Ethics Committee of the Naval Military Medical University. After developing and validating the above LC-MS/MS approach, it was employed to assess the pharmacokinetics of IPA following its intravenous or oral administration to rats as per the approved protocols discussed above. Briefly, after acclimatization, rats were fasted for 12 h and then randomized to undergo treatment with a 5 mg/kg i.v. dose of IPA or with oral IPA doses of 50, 100, or 200 mg/kg (n = 5/group). All IPA solutions were prepared in physiological saline and thoroughly mixed with CMC-Na. Blood samples (~0.4 mL) from these rats were collected in heparinized tubes at 0, 0.083, 0.167, 0.25, 0.5, 0.75, 1, 2, 3, 4, 6, 8, and 12 h following i.v. injection or at 0.167, 0.333, 0.5, 0.75, 1,1.5, 2, 4, 6, 8, 12, and 24 h following oral administration. Blood samples were spun for 5 min at 1,500 × g, after which plasma was collected and stored at -20°C prior to analysis. Plasma IPA concentrations were determined using the calibration curve established above based on peak area ratios from individual injection samples. The mean residence time (MRT0-t), area under the blood concentration-time curve (AUC0-∞, AUC0-t), body clearance (CL/F), and elimination half-life (T1/2) were quantified with the DAS 3.2.6 program (Chinese Pharmacology Society) via a noncompartmental approach. Concentration-time curves were used to establish maximum concentration (Cmax) and time to maximum concentration (Tmax) values. Data are given as means ± standard deviation (S.D.). Absolute bioavailability (F %) was determined as follows: F% = AUC0 − ∞(p.o.) dose (i.v.)/AUC0 − ∞(i.v.) dose (p.o.) × 100%.

[2] = Stability of IPA in rat plasma QC samples under storage conditions; format: in vitro ADME; conditions: for stability in rat plasma (in words): three QC concentrations; for Postpreparative, Measured: processed plasma sample; for Postpreparative, Measured / Long-term, Measured / Short-term, Measured / Three freeze-thaw, Measured: n = 5; for Long-term, Measured / Short-term, Measured / Three freeze-thaw, Measured: rat plasma
Experimental: IPA stability was examined by evaluating five replicate samples at the three QC concentration levels in a range of storage conditions. […] Processed sample stability was measured by incubating them for 24 h in the room temperature autosampler. In addition, long-term stability was measured following a 30-day storage period at -20°C, and freeze-thaw stability was measured by cycling samples from -20°C to 20°C three times. When the assay values associated with these samples were within a ±15% deviation from the nominal value, samples were considered to be stable.

[3] = male, Sprague-Dawley, plasma, iv, i.v. 5 mg/kg
[4] = male, Sprague-Dawley, plasma, po, p.o. 50 mg/kg
[5] = male, Sprague-Dawley, plasma, po, p.o. 100 mg/kg
[6] = male, Sprague-Dawley, plasma, po, p.o. 200 mg/kg

## C=C[C@@]1(C)CC[C@H]2C(=CC[C@@H]3[C@]2(C)CCC[C@@]3(C)C(=O)O)C1 [IPA, isopimaric acid]
[1]; [3]
  AUC(0-inf): 818 ± 66.2 ng·h/mL
  MRT: 1.4 ± 0.4 h
  half-life: 6.6 ± 5.9 h
  AUC(0-t): 745 ± 140 ng·h/mL
[1]; male, Sprague-Dawley, plasma, p.o. 50 mg/kg vs i.v. 5 mg/kg
  bioavailability: 11.9%
[1]; male, Sprague-Dawley, plasma, p.o. 100 mg/kg vs i.v. 5 mg/kg
  bioavailability: 17.5%
[1]; [4]
  AUC(0-inf): 923 ± 614 ng·h/mL
  MRT: 9.3 ± 1.3 h
  half-life: 10.4 ± 9.8 h
  AUC(0-t): 887 ± 636 ng·h/mL
  Tmax: 6.4 ± 2.6 h
[1]; male, Sprague-Dawley, plasma, po, p.o. 50 mg/kg, read-out: CL/F (converted)
  CL/F: 1170 mL/min/kg
[1]; [5]
  AUC(0-inf): 2640 ± 1640 ng·h/mL
  MRT: 7.6 ± 1.3 h
  half-life: 5.5 ± 2.3 h
  AUC(0-t): 2600 ± 1630 ng·h/mL
  Tmax: 6 ± 1.4 h
[1]; male, Sprague-Dawley, plasma, po, p.o. 100 mg/kg, read-out: CL/F (converted)
  CL/F: 983 mL/min/kg
[1]; [6]
  AUC(0-inf): 3190 ± 1720 ng·h/mL
  MRT: 7.9 ± 0.5 h
  half-life: 3.6 ± 1 h
  AUC(0-t): 3180 ± 1720 ng·h/mL
  Tmax: 8.8 ± 1.1 h
[1]; male, Sprague-Dawley, plasma, po, p.o. 200 mg/kg, read-out: CL/F (converted)
  CL/F: 1330 mL/min/kg
[1]; i.v. 5 mg/kg
  C max1: 1740.1 ± 456.0 ng/mL
  CL/F: 6.1 ± 0.5 L/h
  T max1: 0 ± 0 h
[1]; p.o. 50 mg/kg
  C max2: 61.6 ± 46.2 ng/mL
  C max1: 83.7 ± 32.9 ng/mL
  T max1: 0.9 ± 0.1 h
[1]; p.o. 100 mg/kg
  C max2: 284.9 ± 183.4 ng/mL
  C max1: 296.4 ± 75.1 ng/mL
  T max1: 0.6 ± 0.3 h
[1]; p.o. 200 mg/kg
  C max2: 286.9 ± 217.2 ng/mL
  C max1: 246.23 ± 94.4 ng/mL
  T max1: 0.65 ± 0.1 h
[2]; 3 rounds of freeze-thawing
  stability in rat plasma (in words): remained stable
[2]; 3 h room temperature incubation
  stability in rat plasma (in words): remained stable
[2]; 30 days of storage at -20°C
  stability in rat plasma (in words): remained stable
[2]; spiked 10 ng·mL^−1, 24 h room temperature autosampler
  Postpreparative, Measured: 9.56 ± 0.88 ng/mL
[2]; spiked 400 ng·mL^−1, 24 h room temperature autosampler
  Postpreparative, Measured: 371.2 ± 1.44 ng/mL
[2]; spiked 2000 ng·mL^−1, 24 h room temperature autosampler
  Postpreparative, Measured: 2012 ± 0.12 ng/mL
[2]; spiked 10 ng·mL^−1, 30 days at -20°C
  Long-term, Measured: 10.79 ± 1.46 ng/mL
[2]; spiked 10 ng·mL^−1, room temperature
  Short-term, Measured: 9.65 ± 0.07 ng/mL
[2]; spiked 10 ng·mL^−1, three cycles -20°C to 20°C
  Three freeze-thaw, Measured: 10.27 ± 0.56 ng/mL
[2]; spiked 400 ng·mL^−1, 30 days at -20°C
  Long-term, Measured: 363.5 ± 1.82 ng/mL
[2]; spiked 400 ng·mL^−1, room temperature
  Short-term, Measured: 407.0 ± 0.34 ng/mL
[2]; spiked 400 ng·mL^−1, three cycles -20°C to 20°C
  Three freeze-thaw, Measured: 421.8 ± 1.08 ng/mL
[2]; spiked 2000 ng·mL^−1, 30 days at -20°C
  Long-term, Measured: 1908.3 ± 0.92 ng/mL
[2]; spiked 2000 ng·mL^−1, room temperature
  Short-term, Measured: 1840 ± 1.6 ng/mL
[2]; spiked 2000 ng·mL^−1, three cycles -20°C to 20°C
  Three freeze-thaw, Measured: 1967 ± 0.34 ng/mL
[2]; room temperature for 24 h in the autosampler
  postpreparation stability (in words): remained stable
